Source: PubChem BioAssay AID248 (DTP/NCI, 2004)
Toxic doses and inconclusive results are not listed. Rule as the data show it: active = T/C of 150% or more; inactive = T/C below 125%.

Tested on: L1210 leukemia ip in BDF1 mice, survival T/C
Assay: NCI In Vivo Anticancer Drug Screen. Data for tumor model L1210 Leukemia (intraperitoneal) in B6D2F1 (BDF1) mice
Conditions: endpoint: mean survival time, higher = longer survival
In short: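 Antitumor effect is assessed in tumor-bearing animals. Survival in the compound arm is compared with a vehicle-dosed control arm and expressed as their quotient.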

[1] = dose: 100.0 mg/kg/injection, schedule: Q04DX003 (ip), vehicle: saline
[2] = dose: 400.0 mg/kg/injection, schedule: Q04DX003 (ip), vehicle: saline
[3] = dose: 100.0 mg/kg/injection, schedule: Q01DX001 (ip), vehicle: saline
[4] = dose: 200.0 mg/kg/injection, schedule: Q01DX001 (ip), vehicle: saline
[5] = dose: 400.0 mg/kg/injection, schedule: Q01DX001 (ip), vehicle: saline
[6] = dose: 100.0 mg/kg/injection, schedule: Q04DX002 (ip), vehicle: Klucel (hydroxypropylcellulose) (HPC)
[7] = dose: 200.0 mg/kg/injection, schedule: Q04DX002 (ip), vehicle: Klucel (hydroxypropylcellulose) (HPC)
[8] = dose: 400.0 mg/kg/injection, schedule: Q04DX002 (ip), vehicle: Klucel (hydroxypropylcellulose) (HPC)

Measured: T/C

O=S(=O)(O)c1ccc2c(O)cc(S(=O)(=O)O)cc2c1
inactive: dose: 100.0 mg/kg/injection, schedule: Q01DX009 (ip), vehicle: saline 106 % of control | [1] 95 % of control | dose: 200.0 mg/kg/injection, schedule: Q01DX009 (ip), vehicle: saline 112 % of control | dose: 400.0 mg/kg/injection, schedule: Q01DX009 (ip), vehicle: saline 103 % of control | [2] 100 % of control

COC1=[C]([Hg][Br])C(OC)OC1OC (configuration not stated)
inactive: dose: 5.0 mg/kg/injection, schedule: Q01DX009 (ip), vehicle: saline with Tween-80 89 % of control | dose: 10.0 mg/kg/injection, schedule: Q01DX009 (ip), vehicle: saline with Tween-80 95 % of control

COc1ccc(C(=O)CN2C=C(C(=O)c3cc4ccccc4n3S(=O)(=O)c3ccccc3)CCC2)cc1
inactive: dose: 100.0 mg/kg/injection, schedule: Q04DX002 (ip), vehicle: saline with Tween-80 94 % of control | dose: 200.0 mg/kg/injection, schedule: Q04DX002 (ip), vehicle: saline with Tween-80 87 % of control | dose: 400.0 mg/kg/injection, schedule: Q04DX002 (ip), vehicle: saline with Tween-80 87 % of control

CCOC(=O)NC1CC1
inactive: [3] 93 % of control | [4] 95 % of control | [5] 101 % of control

COc1cc(/C=C\C(=O)c2ccccc2)c([N+](=O)[O-])cc1OC
inactive: dose: 100.0 mg/kg/injection, schedule: Q01DX001 (ip), vehicle: water 90 % of control | dose: 200.0 mg/kg/injection, schedule: Q01DX001 (ip), vehicle: water 88 % of control | dose: 400.0 mg/kg/injection, schedule: Q01DX001 (ip), vehicle: water 90 % of control

CCOC(=O)NC(C(=O)OC)C(=O)OC
inactive: dose: 100.0 mg/kg/injection, schedule: Q01DX009 (ip), vehicle: Klucel (hydroxypropylcellulose) (HPC) 97 % of control | [1] 100 % of control | dose: 200.0 mg/kg/injection, schedule: Q01DX009 (ip), vehicle: Klucel (hydroxypropylcellulose) (HPC) 97 % of control | dose: 200.0 mg/kg/injection, schedule: Q04DX003 (ip), vehicle: saline 97 % of control | dose: 400.0 mg/kg/injection, schedule: Q01DX009 (ip), vehicle: Klucel (hydroxypropylcellulose) (HPC) 97 % of control | [2] 100 % of control

CC1c2ccccc2OC(=O)C1C(=O)O (configuration not stated)
inactive: dose: 88.8 mg/kg/injection, schedule: Q01DX001 (ip), vehicle: carboxymethylcellulose (CMC) 94 % of control | dose: 100.0 mg/kg/injection, schedule: Q01DX001 (ip), vehicle: carboxymethylcellulose (CMC) 94 % of control | dose: 133.4 mg/kg/injection, schedule: Q01DX001 (ip), vehicle: carboxymethylcellulose (CMC) 94 % of control | dose: 300.0 mg/kg/injection, schedule: Q01DX001 (ip), vehicle: carboxymethylcellulose (CMC) 100 % of control | dose: 400.0 mg/kg/injection, schedule: Q01DX001 (ip), vehicle: carboxymethylcellulose (CMC) 94 % of control

C=COC(=O)NC(C(=O)O)C(C)C (configuration not stated)
inactive: [3] 96 % of control

CCOC(=O)c1c(-c2ccc([N+](=O)[O-])cc2)cn(-c2ccc(OC)cc2)c1C
inactive: [6] 91 % of control | [7] 87 % of control | [8] 94 % of control

COc1cccc(NC(=S)Nc2ccccc2)c1
inactive: [6] 95 % of control | [7] 88 % of control | [8] 111 % of control

COc1cc2ccc3c(c2cc1OC)CN1CCc2cc4c(cc2C1C3)OCO4 (configuration not stated)
inactive: dose: 100.0 mg/kg/injection, schedule: Q01DX009 (ip), vehicle: saline sonified 93 % of control | dose: 100.0 mg/kg/injection, schedule: Q04DX003 (ip), vehicle: saline sonified 109 % of control | dose: 200.0 mg/kg/injection, schedule: Q01DX009 (ip), vehicle: saline sonified 109 % of control | dose: 200.0 mg/kg/injection, schedule: Q04DX003 (ip), vehicle: saline sonified 98 % of control | dose: 400.0 mg/kg/injection, schedule: Q01DX009 (ip), vehicle: saline sonified 94 % of control | dose: 400.0 mg/kg/injection, schedule: Q04DX003 (ip), vehicle: saline sonified 101 % of control

O=C1C=C(c2ccccc2)C(Cl)(c2ccccc2)C1 (configuration not stated)
inactive: dose: 100.0 mg/kg/injection, schedule: Q01DX001 (ip), vehicle: saline with Tween-80 104 % of control | dose: 200.0 mg/kg/injection, schedule: Q01DX001 (ip), vehicle: saline with Tween-80 96 % of control | dose: 400.0 mg/kg/injection, schedule: Q01DX001 (ip), vehicle: saline with Tween-80 89 % of control

CCC(O)C(C)CO (configuration not stated)
inactive: [3] 103 % of control | [4] 121 % of control | [5] 97 % of control

NC(CCl)=NCC1C2CC3CC(C2)CC1C3 (configuration not stated)
inactive: dose: 10.0 mg/kg/injection, schedule: Q01DX009 (ip), vehicle: saline 101 % of control | dose: 10.0 mg/kg/injection, schedule: Q04DX002 (ip), vehicle: saline 121 % of control | dose: 20.0 mg/kg/injection, schedule: Q01DX009 (ip), vehicle: saline 116 % of control | dose: 20.0 mg/kg/injection, schedule: Q04DX002 (ip), vehicle: saline 110 % of control | dose: 40.0 mg/kg/injection, schedule: Q04DX002 (ip), vehicle: saline 110 % of control

ClCC(Cl)CN1CCCCC1 (configuration not stated)
inactive: dose: 100.0 mg/kg/injection, schedule: Q04DX003 (ip), vehicle: saline with Tween-80 112 % of control
